In PubChem BioAssay AID330 (DTP/NCI, 2004):
Where “and” joins values, the source holds several entries; their conditions need not be identical. Identical values can stand only once. Toxic doses and inconclusive results are not listed. Rule for the calls: active = survival T/C of 150% or more; inactive = T/C below 125% in these data. Peptide text beside a SMILES is read from it.

System: P388 leukemia ip, CD2F1 mice, survival T/C
Assay: NCI In Vivo Anticancer Drug Screen. Data for tumor model P388 Leukemia (intraperitoneal) in CD2F1 (CDF1) mice
Conditions: endpoint: median survival time, higher = longer survival
Outline: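 Mice carrying the transplanted tumor received test compound or vehicle. Survival was recorded in each group, and the value is the treated-group measurement divided by that of the vehicle-treated control group.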

[1] = dose: 100.0 mg/kg/injection, schedule: Q01DX005 (ip), vehicle: Klucel (hydroxypropylcellulose) (HPC)
[2] = dose: 25.0 mg/kg/injection, schedule: Q01DX009 (ip), vehicle: saline with Tween-80
[3] = dose: 50.0 mg/kg/injection, schedule: Q01DX009 (ip), vehicle: saline with Tween-80
[4] = dose: 50.0 mg/kg/injection, schedule: Q04DX003 (ip), vehicle: saline with Tween-80
[5] = dose: 100.0 mg/kg/injection, schedule: Q01DX009 (ip), vehicle: saline with Tween-80
[6] = dose: 100.0 mg/kg/injection, schedule: Q04DX003 (ip), vehicle: saline with Tween-80
[7] = dose: 50.0 mg/kg/injection, schedule: Q01DX009 (ip), vehicle: saline
[8] = dose: 100.0 mg/kg/injection, schedule: Q01DX009 (ip), vehicle: saline
[9] = dose: 50.0 mg/kg/injection, schedule: Q01DX005 (ip), vehicle: saline
[10] = dose: 200.0 mg/kg/injection, schedule: Q01DX009 (ip), vehicle: saline with Tween-80
[11] = dose: 60.0 mg/kg/injection, schedule: Q01DX005 (ip), vehicle: saline
[12] = dose: 120.0 mg/kg/injection, schedule: Q01DX005 (ip), vehicle: saline
[13] = dose: 200.0 mg/kg/injection, schedule: Q04DX003 (ip), vehicle: saline with Tween-80
[14] = dose: 50.0 mg/kg/injection, schedule: Q01DX005 (ip), vehicle: saline with Tween-80
[15] = dose: 100.0 mg/kg/injection, schedule: Q01DX005 (ip), vehicle: saline with Tween-80
[16] = dose: 200.0 mg/kg/injection, schedule: Q01DX005 (ip), vehicle: saline with Tween-80
[17] = dose: 6.25 mg/kg/injection, schedule: Q01DX005 (ip), vehicle: Klucel (hydroxypropylcellulose) (HPC)
[18] = dose: 12.5 mg/kg/injection, schedule: Q01DX005 (ip), vehicle: Klucel (hydroxypropylcellulose) (HPC)
[19] = dose: 50.0 mg/kg/injection, schedule: Q01DX005 (ip), vehicle: Klucel (hydroxypropylcellulose) (HPC)
[20] = dose: 12.5 mg/kg/injection, schedule: Q01DX005 (ip), vehicle: saline
[21] = dose: 25.0 mg/kg/injection, schedule: Q01DX005 (ip), vehicle: saline

Measured: T/C

CC1=N/C(=C\c2ccccc2)C(=O)N1c1ccccc1
inactive: [1] 98 % of control | dose: 200.0 mg/kg/injection, schedule: Q01DX005 (ip), vehicle: Klucel (hydroxypropylcellulose) (HPC) 104 % of control | dose: 400.0 mg/kg/injection, schedule: Q01DX005 (ip), vehicle: Klucel (hydroxypropylcellulose) (HPC) 105 % of control

C[C@]12CC[C@H](O)C[C@@H]1CC[C@@H]1[C@@H]2C(=O)C[C@]2(C)C3=CC(=O)O[C@H]3C[C@@H]12
inactive: [2] 109 % of control | dose: 25.0 mg/kg/injection, schedule: Q04DX003 (ip), vehicle: saline with Tween-80 117 % of control | [3] 118 % of control | [4] 104 % of control | [5] 86 % of control | [6] 113 % of control and 95 % of control

COC(=O)c1cc(NC(=O)O/N=C/c2cccnc2)cc(C(=O)OC)c1
inactive: [7] 103 % of control | [8] 91 % of control

NC(N)=NCCCC(N)C(=O)N1CCCC1C(=O)O (stereo not drawn) (H-Arg-Pro-OH; configuration not given here)
inactive: [9] 101 % of control | dose: 100.0 mg/kg/injection, schedule: Q01DX005 (ip), vehicle: saline 97 % of control | dose: 200.0 mg/kg/injection, schedule: Q01DX005 (ip), vehicle: saline 100 % of control

CCCCCCOCN(COCCCCCC)c1ccc(Cl)cc1
inactive: [3] 102 % of control | [5] 109 % of control | [10] 118 % of control

N#CCCP(=O)(O)CCC#N
inactive: [11] 100 % of control | [12] 100 % of control | dose: 240.0 mg/kg/injection, schedule: Q01DX005 (ip), vehicle: saline 90 % of control

CC1=NN(C(=O)c2cccnc2)C(=O)C1N=Nc1ccc(S(=O)(=O)Nc2nc(C)cc(C)n2)cc1 (stereo not given)
inactive: [3] 101 % of control | [5] 99 % of control | [10] 99 % of control

CN(C)P(=S)(N(C)C)N1CCOCC1
inactive: [4] 104 % of control | [6] 88 % of control | [13] 96 % of control

COc1cc2c(cc1C(C)c1ccc(Cl)cc1)OCO2 (stereo not given)
inactive: [14] 99 % of control | [15] 108 % of control | [16] 101 % of control

Oc1c(Cl)cc(Cl)cc1C=Nc1cc(C(F)(F)F)ccc1N1CCc2ccccc2C1
inactive: [3] 98 % of control | [5] 95 % of control | [10] 96 % of control

O=[N+]([O-])c1ccc(OCC#CCOc2ccc([N+](=O)[O-])c(C(F)(F)F)c2)cc1C(F)(F)F
inactive: dose: 50.0 mg/kg/injection, schedule: Q01DX009 (ip), vehicle: other 105 % of control | dose: 100.0 mg/kg/injection, schedule: Q01DX009 (ip), vehicle: other 104 % of control | dose: 200.0 mg/kg/injection, schedule: Q01DX009 (ip), vehicle: other 102 % of control

O=c1[nH]c2cc([N+](=O)[O-])ccc2nc1/C=C(\O)c1cccc([N+](=O)[O-])c1
inactive: dose: 30.0 mg/kg/injection, schedule: Q01DX005 (ip), vehicle: Klucel + Tween-80 96 % of control | dose: 60.0 mg/kg/injection, schedule: Q01DX005 (ip), vehicle: Klucel + Tween-80 88 % of control and 90 % of control | dose: 120.0 mg/kg/injection, schedule: Q01DX005 (ip), vehicle: Klucel + Tween-80 87 % of control | dose: 240.0 mg/kg/injection, schedule: Q01DX005 (ip), vehicle: Klucel + Tween-80 89 % of control

CCc1c(-c2ccccc2)nc(N)nc1-c1nc(N)nc(-c2ccccc2)c1CC
inactive: [11] 98 % of control | [12] 100 % of control

CCOC1N(c2ccc(Cl)cc2)CN(C)CC1(C)C (stereo not given)
inactive: [3] 117 % of control | [5] 120 % of control

CCOc1ccc(Nc2ncnc3sc4c(c23)CCCC4)cc1
inactive: [14] 100 % of control | [15] 102 % of control | [16] 109 % of control

COc1ccc2c(c1)c(CBr)c(C)c[n+]2[O-]
inactive: [17] 104 % of control | [18] 102 % of control | [19] 86 % of control

c1cc2nc(-c3ccc4nc(C5=NCCN5)[nH]c4c3)[nH]c2cc1C1=NCCN1
inactive: [20] 90 % of control | [21] 87 % of control and 90 % of control | [9] 99 % of control and 91 % of control and 97 % of control

COc1ccc2c(c1[N+](=O)[O-])CC[C@@H]1[C@@H]2CC[C@]2(C)C(=O)CC[C@@H]12
inactive: dose: 25.0 mg/kg/injection, schedule: Q01DX005 (ip), vehicle: saline with Tween-80 103 % of control | [14] 105 % of control | [15] 99 % of control | [16] 86 % of control

COC(=O)/C=C/c1cccc[n+]1[O-]
inactive: dose: 25.0 mg/kg/injection, schedule: Q01DX005 (ip), vehicle: water 107 % of control | dose: 50.0 mg/kg/injection, schedule: Q01DX005 (ip), vehicle: water 107 % of control | dose: 100.0 mg/kg/injection, schedule: Q01DX005 (ip), vehicle: water 109 % of control | dose: 200.0 mg/kg/injection, schedule: Q01DX005 (ip), vehicle: water 107 % of control

C=C1C(=O)OC2/C=C(CO)/C=C\C3OC3(C)CC(OC(=O)/C(C)=C/COC(C)=O)C12 (stereo not given)
inactive: [17] 94 % of control | [18] 103 % of control | dose: 25.0 mg/kg/injection, schedule: Q01DX005 (ip), vehicle: Klucel (hydroxypropylcellulose) (HPC) 109 % of control and 94 % of control | [19] 98 % of control

COc1ccc(C)cc1NC(=S)NC(=O)/C=C/c1ccccc1
inactive: dose: 25.0 mg/kg/injection, schedule: Q01DX009 (ip), vehicle: saline 97 % of control | [7] 87 % of control | [8] 96 % of control | dose: 200.0 mg/kg/injection, schedule: Q01DX009 (ip), vehicle: saline 98 % of control

O=C(Nc1ccc(N(CCCl)CCCl)cc1)Oc1ccc(C(=O)O)cc1
inactive: [2] 106 % of control
active: dose: 6.25 mg/kg/injection, schedule: Q01DX009 (ip), vehicle: saline with Tween-80 179 % of control and 193 % of control | dose: 12.5 mg/kg/injection, schedule: Q01DX009 (ip), vehicle: saline with Tween-80 185 % of control and 189 % of control

COc1nc(NC2OC(CO)C(O)C(O)C2O)c(C(=O)CCl)c(=O)n1C (stereo not given)
inactive: dose: 60.0 mg/kg/injection, schedule: Q01DX005 (ip), vehicle: saline with Tween-80 92 % of control | dose: 120.0 mg/kg/injection, schedule: Q01DX005 (ip), vehicle: saline with Tween-80 87 % of control | dose: 240.0 mg/kg/injection, schedule: Q01DX005 (ip), vehicle: saline with Tween-80 95 % of control and 96 % of control

C=CCCc1ccccc1/C=N/NS(=O)(=O)c1ccc(C)cc1
inactive: dose: 100.0 mg/kg/injection, schedule: Q01DX001 (ip), vehicle: saline with Tween-80 97 % of control | dose: 200.0 mg/kg/injection, schedule: Q01DX001 (ip), vehicle: saline with Tween-80 88 % of control | dose: 400.0 mg/kg/injection, schedule: Q01DX001 (ip), vehicle: saline with Tween-80 101 % of control

O=[N+]([O-])c1cnn(Cn2cc([N+](=O)[O-])cn2)c1
inactive: [6] 109 % of control | [13] 116 % of control | dose: 400.0 mg/kg/injection, schedule: Q04DX003 (ip), vehicle: saline with Tween-80 120 % of control

COc1cccc2c1C(CO)N1C(C#N)C3CC(C(=O)O)C(C1C2)N3C (stereo not given)
active: dose: 3.12 mg/kg/injection, schedule: Q01DX005 (ip), vehicle: saline 150 % of control | dose: 6.25 mg/kg/injection, schedule: Q01DX005 (ip), vehicle: saline 157 % of control | dose: 6.25 mg/kg/injection, schedule: Q01DX005 (ip), vehicle: suspension in saline 159 % of control | [20] 160 % of control | dose: 12.5 mg/kg/injection, schedule: Q01DX005 (ip), vehicle: suspension in saline 150 % of control and 178 % of control and 186 % of control | [21] 200 % of control
inactive: dose: 0.78 mg/kg/injection, schedule: Q01DX005 (ip), vehicle: suspension in saline 116 % of control and 122 % of control | dose: 1.56 mg/kg/injection, schedule: Q01DX005 (ip), vehicle: suspension in saline 122 % of control

Cc1cccc(-n2c(C)nc3[nH]cc(C)c3c2=N)c1
inactive: [19] 99 % of control | [1] 105 % of control
